Measurements: EP0745599A2, “1-(3-Heterocyclylphenyl)-s-triazine-2,4,6-oxo or thiotrione herbicidal agents” (American Cyanamid Company, priority 1995, dated 1996)

What was measured:
Format in all cases: in vivo
Details in all cases: rated four to five weeks after treatment
[1] = tested on: TRITICUM AESTIVUM, CV. APOLLO; assay: Preemergence herbicidal evaluation, TRZAWO (Wheat, Winter, CV. APOLLO); parameters: key to TRZAWO: visual rating scale 0-9 vs control
Description: (§1) Results of herbicide evaluation are expressed on a rating scale (0-9). The scale is based upon a visual observation of plant stand, vigor, malformation, size, chlorosis and overall plant appearance as compared with a control.
(§2) The preemergence herbicidal activity of the test compounds of the present invention is exemplified by the following tests in which the seeds of a variety of monocotyledonous and dicotyledonous plants are separately mixed with potting soil and planted on top of approximately one inch of soil in separate pint cups. After planting, the cups are sprayed with the selected aqueous acetone solution containing test compound in sufficient quantity to provide the equivalent of about 0.125 to 0.50 kg per hectare of test compound per cup. The treated cups are then placed on greenhouse benches, watered and cared for in accordance with conventional greenhouse procedures. From four to five weeks after treatment, the tests are terminated and each cup is examined and rated according to the rating system provided in Example 42.

[2] = tested on: GALIUM APARINE; assay: Preemergence herbicidal evaluation, GALAP (Galium); parameters: key to GALAP: visual rating scale 0-9 vs control
Description: as §1, §2

[3] = tested on: ECHINOCHLOA CRUS-GALLI, (L) BEAU; assay: Postemergence herbicidal evaluation, ECHCG (Barnyardgrass)
Method: (§3) In the tests, seedling plants are grown in jiffy flats for about two weeks. The test compounds are dispersed in 50/50 acetone/water mixtures containing 0.5% TWEEN®20, a polyoxyethylene sorbitan monolaurate surfactant of Atlas Chemical Industries, in sufficient quantities to provide the equivalent of about 0.125 kg to 0.500 kg per hectare of active compound when applied to the plants through a spray nozzle operating at 40 psi for a predetermined time. After spraying, the plants are placed on greenhouse benches and are cared for in the usual manner, commensurate with conventional greenhouse practices. From four to five weeks after treatment, the seedling plants are examined and rated according to the rating system set forth below. Where more than one test is involved for a given compound, the data are averaged.
as §1

[4] = tested on: ZEA MAYS L.; assay: Preemergence herbicidal evaluation, ZEAMX (Corn, Field); parameters: key to ZEAMX: visual rating scale 0-9 vs control
Description: as §1, §2

[5] = tested on: ABUTILON THEOPHRASTI, MEDIC.; assay: Preemergence herbicidal evaluation, ABUTH (Velvetleaf); parameters: key to ABUTH: visual rating scale 0-9 vs control
Description: as §1, §2

[6] = tested on: SETARIA VIRIDIS, (L) BEAU; assay: Postemergence herbicidal evaluation, SETVI (Foxtail, Green)
Method: as §3, §1

[7] = tested on: SETARIA VIRIDIS, (L) BEAU; assay: Preemergence herbicidal evaluation, SETVI (Foxtail, Green); parameters: key to SETVI: visual rating scale 0-9 vs control
Description: as §1, §2

[8] = tested on: IPOMOEA SPP.; assay: Preemergence herbicidal evaluation, IPOSS (Morningglory Spp.); parameters: key to IPOSS: visual rating scale 0-9 vs control
Description: as §1, §2

[9] = tested on: CASSIA OBTUSIFOLIA, L.; assay: Preemergence herbicidal evaluation, CASOB (Sicklepod); parameters: key to CASOB: visual rating scale 0-9 vs control
Description: as §1, §2

[10] = tested on: CHENOPODIUM ALBUM, L.; assay: Preemergence herbicidal evaluation, CHEAL (Lambsquarters, Common); parameters: key to CHEAL: visual rating scale 0-9 vs control
Description: as §1, §2

[11] = tested on: GLYCINE MAX(L)MERR. CV. WILLIAMS; assay: Preemergence herbicidal evaluation, GLXMAW (Soybean, Williams); parameters: key to GLXMAW: visual rating scale 0-9 vs control
Description: as §1, §2

[12] = tested on: AMBROSIA ARTEMISIIFOLIA, L.; assay: Preemergence herbicidal evaluation, AMBEL (Ragweed, Common); parameters: key to AMBEL: visual rating scale 0-9 vs control
Description: as §1, §2

[13] = tested on: ORYZA SATIVA, L. TEBONNET; assay: Preemergence herbicidal evaluation, ORYSAT (Rice, Tebonnet); parameters: key to ORYSAT: visual rating scale 0-9 vs control
Description: as §1, §2

[14] = tested on: ECHINOCHLOA CRUS-GALLI, (L) BEAU; assay: Preemergence herbicidal evaluation, ECHCG (Barnyardgrass); parameters: key to ECHCG: visual rating scale 0-9 vs control
Description: as §1, §2

[15] = tested on: ABUTILON THEOPHRASTI, MEDIC.; assay: Postemergence herbicidal evaluation, ABUTH (Velvetleaf)
Method: as §3, §1

C#CCn1c(=O)n(C)c(=O)n(-c2cc(N3C(=O)C4=C(CCCC4)C3=O)c(F)cc2Cl)c1=O [Compound 16, N-{4-Chloro-2-fluoro-5-[hexahydro-3-methyl-2,4,6-trioxo-5-(2-propynyl)-s-triazin-1-yl]phenyl}-1-cyclohexene-1,2-dicarboximide]
TRZAWO ([1]; Rate 0.125 kg/ha): 0.0
TRZAWO ([1]; Rate 0.250 kg/ha): 0.0
TRZAWO ([1]; Rate 0.500 kg/ha): 0.0
GALAP ([2]; Rate 0.125 kg/ha): 0.0
GALAP ([2]; Rate 0.250 kg/ha): 0.0
GALAP ([2]; Rate 0.500 kg/ha): 4.0
Herbicide rating (0-9) ECHCG ([3]; 0.125 kg/ha): 0.0
Herbicide rating (0-9) ECHCG ([3]; 0.250 kg/ha): 0.0
Herbicide rating (0-9) ECHCG ([3]; 0.500 kg/ha): 0.0
ZEAMX ([4]; Rate 0.125 kg/ha): 0.0
ZEAMX ([4]; Rate 0.250 kg/ha): 1.0
ZEAMX ([4]; Rate 0.500 kg/ha): 2.0
ABUTH ([5]; Rate 0.125 kg/ha): 2.0
ABUTH ([5]; Rate 0.250 kg/ha): 6.0
ABUTH ([5]; Rate 0.500 kg/ha): 9.0
Herbicide rating (0-9) SETVI ([6]; 0.125 kg/ha): 0.0
Herbicide rating (0-9) SETVI ([6]; 0.250 kg/ha): 0.0
Herbicide rating (0-9) SETVI ([6]; 0.500 kg/ha): 0.0
SETVI ([7]; Rate 0.125 kg/ha): 0.0
SETVI ([7]; Rate 0.250 kg/ha): 0.0
SETVI ([7]; Rate 0.500 kg/ha): 3.0
IPOSS ([8]; Rate 0.125 kg/ha): 0.0
IPOSS ([8]; Rate 0.250 kg/ha): 0.0
IPOSS ([8]; Rate 0.500 kg/ha): 0.0
CASOB ([9]; Rate 0.125 kg/ha): 0.0
CASOB ([9]; Rate 0.250 kg/ha): 0.0
CASOB ([9]; Rate 0.500 kg/ha): 0.0
CHEAL ([10]; Rate 0.125 kg/ha): 6.0
CHEAL ([10]; Rate 0.250 kg/ha): 8.0
CHEAL ([10]; Rate 0.500 kg/ha): 9.0
GLXMAW ([11]; Rate 0.125 kg/ha): 0.0
GLXMAW ([11]; Rate 0.250 kg/ha): 0.0
GLXMAW ([11]; Rate 0.500 kg/ha): 0.0
AMBEL ([12]; Rate 0.125 kg/ha): 0.0
AMBEL ([12]; Rate 0.250 kg/ha): 0.0
AMBEL ([12]; Rate 0.500 kg/ha): 2.0
ORYSAT ([13]; Rate 0.125 kg/ha): 0.0
ORYSAT ([13]; Rate 0.250 kg/ha): 0.0
ORYSAT ([13]; Rate 0.500 kg/ha): 0.0
ECHCG ([14]; Rate 0.125 kg/ha): 0.0
ECHCG ([14]; Rate 0.250 kg/ha): 0.0
ECHCG ([14]; Rate 0.500 kg/ha): 0.0

Cn1c(=O)n(CC(=O)OC(C)(C)C)c(=O)n(-c2cc(N3C(=O)C4=C(CCCC4)C3=O)c(F)cc2Cl)c1=O [Compound 2, Tert-butyl 3-[2-chloro-5-(1-cyclohexene-1,2-dicarboximido)-4-fluorophenyl]tetrahydro-5-methyl-2,4,6-trioxo-s-triazine-1(2H)-acetate]
Herbicide rating (0-9) TRZAWO ([1]; 0.125 kg/ha): 1.0
Herbicide rating (0-9) TRZAWO ([1]; 0.250 kg/ha): 1.0
Herbicide rating (0-9) TRZAWO ([1]; 0.500 kg/ha): 1.0
Herbicide rating (0-9) ABUTH ([15]; 0.125 kg/ha): 9.0
Herbicide rating (0-9) ABUTH ([15]; 0.250 kg/ha): 9.0
Herbicide rating (0-9) ABUTH ([15]; 0.500 kg/ha): 9.0
Herbicide rating (0-9) SETVI ([7]; 0.125 kg/ha): 0.0
Herbicide rating (0-9) SETVI ([7]; 0.250 kg/ha): 0.0
Herbicide rating (0-9) SETVI ([7]; 0.500 kg/ha): 0.0
Herbicide rating (0-9) IPOSS ([8]; 0.125 kg/ha): 6.0
Herbicide rating (0-9) IPOSS ([8]; 0.250 kg/ha): 6.0
Herbicide rating (0-9) IPOSS ([8]; 0.500 kg/ha): 6.0
Herbicide rating (0-9) CHEAL ([10]; 0.125 kg/ha): 9.0
Herbicide rating (0-9) CHEAL ([10]; 0.250 kg/ha): 9.0
Herbicide rating (0-9) CHEAL ([10]; 0.500 kg/ha): 9.0
Herbicide rating (0-9) GLXMAW ([11]; 0.125 kg/ha): 0.0
Herbicide rating (0-9) GLXMAW ([11]; 0.250 kg/ha): 0.0
Herbicide rating (0-9) GLXMAW ([11]; 0.500 kg/ha): 0.0
Herbicide rating (0-9) ECHCG ([14]; 0.125 kg/ha): 0.0
Herbicide rating (0-9) ECHCG ([14]; 0.250 kg/ha): 0.0
Herbicide rating (0-9) ECHCG ([14]; 0.500 kg/ha): 0.0
